Experimental data as given in patent publication US20190322676A1, “CERAMIDE GALACTOSYLTRANSFERASE INHIBITORS FOR THE TREATMENT OF DISEASE” (BioMarin Pharmaceutical Inc., priority 2016, published 2019).
Counter-ions that a name gives are not always drawn.

The molecules below were run against T1, human CGT (ceramide galactosyltransferase), CHO/CGT lysate (Homo sapiens, UniProt Q16880) (assay: CGT enzyme assay, LC-MS/MS readout (Table 1 ranges without asterisk)). Details: LC-MS/MS method (range without asterisk).
T1 construct: Full-length human CGT cDNA was cloned into the BamH1/Xho1 site of pcDNA3.1 (+); expressed in transfected cells; host or cells: Chinese hamster ovary (CHO) cells; lysate prepared with M-PER
T1 sequence (Q16880 21-541): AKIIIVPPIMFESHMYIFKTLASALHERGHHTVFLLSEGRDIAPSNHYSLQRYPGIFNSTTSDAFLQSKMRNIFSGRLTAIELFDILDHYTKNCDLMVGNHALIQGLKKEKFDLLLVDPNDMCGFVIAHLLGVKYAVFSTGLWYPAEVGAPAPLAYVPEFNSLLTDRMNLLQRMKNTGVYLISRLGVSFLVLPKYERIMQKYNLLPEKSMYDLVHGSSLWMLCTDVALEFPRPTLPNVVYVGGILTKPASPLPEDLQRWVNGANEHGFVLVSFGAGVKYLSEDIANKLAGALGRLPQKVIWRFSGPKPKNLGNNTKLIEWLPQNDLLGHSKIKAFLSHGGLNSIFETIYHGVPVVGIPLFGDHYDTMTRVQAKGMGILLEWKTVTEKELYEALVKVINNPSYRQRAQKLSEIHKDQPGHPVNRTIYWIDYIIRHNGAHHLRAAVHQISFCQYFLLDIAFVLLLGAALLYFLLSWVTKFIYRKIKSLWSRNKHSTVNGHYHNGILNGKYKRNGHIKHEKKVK
Type: biochemical
Procedure: Full-length human CGT cDNA was cloned into the BamH1/Xho1 site of pcDNA3.1 (+) mammalian expression vector (V90-20, Invitrogen, Carlsbad, Calif.) and the plasmid was transfected into Chinese hamster ovary (CHO) cells. Lysate was prepared using M-PER (Mammalian Protein Extraction Reagent, ThermoFisher Scientific, Grand Island, N.Y.) in the presence of a protease inhibitor cocktail (P8340, Sigma, Saint Louis, Mo.). Each 100 mm dish (100% confluent, approximately 1×10^7 cells) was lysed with 250 μL of M-PER containing protease inhibitors. Protein concentration was determined using a Pierce BCA protein assay kit (ThermoFisher Scientific). Four micrograms of CHO/CGT lysate was incubated with various concentrations of a compound (0.001 μM-50 μM) in 10 mM HEPES (pH 7.2) containing 35 μM dioleoylphosphatidylcholine, 5 mM MgCl2, 5 mM MnCl2, 1% BSA, 15 mM KCl, 1 mM EGTA, 8 mM CHAPS, 10 μM C6-NBD-dihydro-ceramide and 17.5 μM UDP-galactose in a final reaction volume of 20 μL at 37° C. for 1 hour. The final concentration of DMSO was 0.5% in both compound-treated and mock-treated samples. Tween 80 (0.01%) was optionally added to the reaction mixture to help solubilize the compounds. Each individual reaction was diluted with 80 μL of methanol:acetronitrile (1:3) containing 5 μM N-docdecanoyl-NBD-galactosylceramide (internal standard) to stop the reaction. 200 μL H2O:acetonitile (1:1) was added to precipitate the protein. After sufficient mixing, the plates were centrifuged at 2469 g for 38 minutes, 200 μL of supernatant was transferred to a LC/MS 96-deep well plate and a second spin was performed at 2469 g for 10 minutes. The final supernatant was injected in triplicate for RapidFire/MS/MS analysis.
An alternative LC-MS/MS based method was also used. For the LC-MS/MS readout, the CGT assay was identical to the one described above except for the following: […] was used as the CGT enzyme source, C12:0 (2R—OH) ceramide was used as the ceramide substrate and 0.3 μM Cl2 ceramide was used as the internal standard. Tween 80 was not present in the reaction mixture. The final supernatant was injected for LC-MS/MS analysis.
Quantitative analysis using the LC-MS/MS method: The quantitative analysis of C12:0 (2R—OH) ceramide and C12:0 (2R—OH) galactosylceramide by LC-MS/MS was performed on a Shimadzu ultra-fast liquid chromatography (Shimadzu, Japan) coupled with API 4000 mass spectrometer (Applied Biosystems, Concord, Ontario, Canada). Analyst 1.5 software packages (Applied Biosystems) were used to control the LC-MS/MS system, as well as for data acquisition and processing. 10 μL of sample was loaded onto a Luna C18 column (50 mm×2.0 mm, I.D. 3 μm, 100A) (Phenomenex, USA) for chromatographic separation. Mobile phase A consisted of HPLC grade water with 0.1% formic acid (v/v) and mobile phase B consisted of acetonitrile supplemented with 0.1% formic acid (v/v). The separation was achieved using the following gradient program at a flow rate of 0.8 mL/min: the initial mobile phase was 70% B, which was increased in a linear fashion to 95% B in 1.50 min, and then maintained at 95% B until 3.50 min. The mobile phase was then reset to 70% B within 0.01 min, and maintained until 4.50 min. The total run time was 4.50 min. The MS/MS detection was performed in ESI positive mode. The mass transition selected for quantification was m/z 498.5-264.3 for C12:0 (2R—OH) ceramide under the collision energy of 38.8 V, and the mass transition of C12:0 (2R—OH) galactosylceramide was m/z 660.6-264.5 under the collision energy of 51 V. The mass transition of Cl2 ceramide which was used as internal standard was m/z 482.4-264.3 under the collision energy of 33V. Compound IC50 values were calculated using a protocol identical to the one described for the RapidFire method (see Table 1, where data ranges without an asterix correspond to analysis using the LC-MS/MS method).
Using the above CGT enzyme and CGT cellular assays, the compounds of Table 1 were tested. […]

Row | Structure (SMILES) | IC50
1 | NC1CC2CCC(C1)N2C(=O)[C@@H](NS(=O)(=O)c1ccc(OCCC2CCCCC2)cc1)C(F)(F)c1ccc(Br)cc1 (stereo partly drawn) [Compound 26-1, N-((2R)-3-(3-amino-8-azabicyclo[3.2.1]octan-8-yl)-1-(4-bromophenyl)-1,1-difluoro-3-oxopropan-2-yl)-4-(2-cyclohexylethoxy)benzenesulfonamide trifluoroacetate] | 1 to 10 µM
2 | NC1CC2CCC(C1)N2C(=O)[C@H](NS(=O)(=O)c1ccc(-c2ccc(F)cc2)cc1)C(F)(F)c1ccc(Br)cc1 (stereo partly drawn) [Compound 3-2, N-((2S)-3-(3-amino-8-azabicyclo[3.2.1]octan-8-yl)-1-(4-bromophenyl)-1,1-difluoro-3-oxopropan-2-yl)-4′-fluoro-[1,1′-biphenyl]-4-sulfonamide] | 30 to 100 µM
3 | NC1CC2CCC(C1)N2C(=O)[C@H](NS(=O)(=O)c1ccc(OCC2CCCC2)cc1)C(F)(F)c1ccc(Br)cc1 (stereo partly drawn) [Compound 20-2, N-((2S)-3-(3-amino-8-azabicyclo[3.2.1]octan-8-yl)-1-(4-bromophenyl)-1,1-difluoro-3-oxopropan-2-yl)-4-(cyclopentylmethoxy) benzenesulfonamide trifluoroacetate] | 10 to 30 µM
4 | CC(C)Oc1ccc2cc(C(=O)C(=O)N[C@@H](C(=O)N3C4CCC3CC(N)C4)C(F)(F)c3ccc(Br)cc3)ccc2c1 (stereo partly drawn) [Compound 9-2, N-((2S)-3-(3-amino-8-azabicyclo[3.2.1]octan-8-yl)-1-(4-bromophenyl)-1,1-difluoro-3-oxopropan-2-yl)-2-(6-isopropoxynaphthalen-2-yl)-2-oxoacetamide trifluoroacetate] | 30 to 100 µM
5 | NC1CC2CCC(C1)N2C(=O)[C@@H](NS(=O)(=O)c1ccc(Oc2ccc(Cl)cn2)cc1)C(F)(F)c1ccc(Br)cc1 (stereo partly drawn) [Compound 18-1, N-((2R)-3-(3-amino-8-azabicyclo[3.2.1]octan-8-yl)-1-(4-bromophenyl)-1,1-difluoro-3-oxopropan-2-yl)-4-((5-chloropyridin-2-yl)oxy)benzenesulfonamide trifluoroacetate] | 10 to 30 µM
6 | CC(C)Oc1ccc2cc(S(=O)(=O)N[C@@H](C(=O)N3CCC(N)CC3)C(F)(F)c3ccc(Br)cc3)ccc2c1Br [Compound 119-2, (S)—N-(3-(4-aminopiperidin-1-yl)-1-(4-bromophenyl)-1,1-difluoro-3-oxopropan-2-yl)-5-bromo-6-isopropoxynaphthalene-2-sulfonamide] | 10 to 30 µM
7 | NC1CC2CCC(C1)N2C(=O)[C@@H](NS(=O)(=O)c1ccc2cc(Oc3ccccn3)ccc2c1)C(F)(F)c1ccc(Br)cc1 (stereo partly drawn) [Compound 10-1, N-((2R)-3-(3-amino-8-azabicyclo[3.2.1]octan-8-yl)-1-(4-bromophenyl)-1,1-difluoro-3-oxopropan-2-yl)-6-(pyridin-2-yloxy)naphthalene-2-sulfonamide trifluoroacetate] | 30 to 100 µM
8 | CC(C)Oc1ccc2cc(S(=O)(=O)N[C@@H](C(=O)N3C4CCC3CC(N)C4)C(F)(F)c3ccc(Cl)cc3)ccc2c1 (stereo partly drawn) [Compound 8-2, N-((2S)-3-(3-amino-8-azabicyclo[3.2.1]octan-8-yl)-1-(4-chlorophenyl)-1,1-difluoro-3-oxopropan-2-yl)-6-isopropoxynaphthalene-2-sulfonamide trifluoroacetate] | 10 to 30 µM
9 | NC1CC2CCC(C1)N2C(=O)[C@H](NS(=O)(=O)c1ccc(Oc2ccc(Cl)cn2)cc1)C(F)(F)c1ccc(Br)cc1 (stereo partly drawn) [Compound 18-2, N-((2S)-3-(3-amino-8-azabicyclo[3.2.1]octan-8-yl)-1-(4-bromophenyl)-1,1-difluoro-3-oxopropan-2-yl)-4-((5-chloropyridin-2-yl)oxy) benzenesulfonamide trifluoroacetate] | 30 to 100 µM
10 | CC(C)COc1ccc2cc(S(=O)(=O)N[C@@H](C(=O)N3C4CCC3CC(N)C4)C(F)(F)c3ccc(Br)cc3)ccc2c1 (stereo partly drawn) [Compound 7-2, N-((2S)-3-(3-amino-8-azabicyclo[3.2.1]octan-8-yl)-1-(4-bromophenyl)-1,1-difluoro-3-oxopropan-2-yl)-6-isobutoxynaphthalene-2-sulfonamide] | 30 to 100 µM
11 | NC1CC2CCC(C1)N2C(=O)C(NS(=O)(=O)c1ccc2cc(OC3CCCC3)ccc2c1)C(F)(F)c1ccc(Br)cc1 (stereo not shown) [Compound 5, N-(3-(3-amino-8-azabicyclo[3.2.1]octan-8-yl)-1-(4-bromophenyl)-1,1-difluoro-3-oxopropan-2-yl)-6-(cyclopentyloxy)naphthalene-2-sulfonamide trifluoroacetate] | 1 to 10 µM
12 | CCCCOc1ccc(S(=O)(=O)N[C@@H](C(=O)N2C3CCC2CC(N)C3)C(F)(F)c2ccc(Br)cc2)cc1 (stereo partly drawn) [Compound 22-2, N-((2S)-3-(3-amino-8-azabicyclo[3.2.1]octan-8-yl)-1-(4-bromophenyl)-1,1-difluoro-3-oxopropan-2-yl)-4-butoxybenzenesulfonamide] | 30 to 100 µM
13 | CCCCOc1ccc2cc(S(=O)(=O)N[C@@H](C(=O)N3C4CCC3CC(N)C4)C(F)(F)c3ccc(Br)cc3)ccc2c1 (stereo partly drawn) [Compound 6-2, N-((2S)-3-(3-amino-8-azabicyclo[3.2.1]octan-8-yl)-1-(4-bromophenyl)-1,1-difluoro-3-oxopropan-2-yl)-6-butoxynaphthalene-2-sulfonamide trifluoroacetate] | 30 to 100 µM
14 | NC1CC2CCC(C1)N2C(=O)[C@H](NS(=O)(=O)c1ccc(OCc2ccccc2)cc1)C(F)(F)c1ccc(Br)cc1 (stereo partly drawn) [Compound 11-2, N-((2S)-3-(3-amino-8-azabicyclo[3.2.1]octan-8-yl)-1-(4-bromophenyl)-1,1-difluoro-3-oxopropan-2-yl)-4-(benzyloxy)benzenesulfonamide trifluoroacetate] | 30 to 100 µM
15 | NC1CC2CCC(C1)N2C(=O)[C@@H](NS(=O)(=O)c1ccc(Oc2ccc(F)cc2)cc1)C(F)(F)c1ccc(Br)cc1 (stereo partly drawn) [Compound 25-1, N-((2R)-3-(3-amino-8-azabicyclo[3.2.1]octan-8-yl)-1-(4-bromophenyl)-1,1-difluoro-3-oxopropan-2-yl)-4-(4-fluorophenoxy)benzenesulfonamide trifluoroacetate] | 1 to 10 µM
16 | NC1CC2CCC(C1)N2C(=O)[C@@H](NS(=O)(=O)c1ccc(OCc2ccc(Cl)cc2)cc1)C(F)(F)c1ccc(Br)cc1 (stereo partly drawn) [Compound 15-1, N-((2R)-3-(3-amino-8-azabicyclo[3.2.1]octan-8-yl)-1-(4-bromophenyl)-1,1-difluoro-3-oxopropan-2-yl)-4-((4-chlorobenzyl)oxy)benzenesulfonamide trifluoroacetate] | 1 to 10 µM
